Tests used:
Assay type in all cases: in vivo
[1] = system: purple nutsedge (Cyperus rotundus); assay: Test E pre-/postemergence plant response; conditions: scale 0 to 100
Outline: (§1)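 Plant response was judged by eye relative to controls, 0 meaning no effect and 100 complete control, after 14 to 21 days under greenhouse conditions. Compound was formulated in a non-phytotoxic solvent mixture with surfactant.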

[2] = system: itchgrass (Rottboellia cochinchinensis); assay: Test E pre-/postemergence plant response; conditions: scale 0 to 100
Outline: as §1

[3] = system: surinam grass (Brachiaria decumbens); assay: Test E pre-/postemergence plant response; conditions: scale 0 to 100
Outline: as §1

[4] = system: southern (S.) sandbur (Cenchrus echinatus); assay: Test E pre-/postemergence plant response; conditions: scale 0 to 100
Outline: as §1

[5] = system: bermudagrass (Cynodon dactylon); assay: Test E pre-/postemergence plant response; conditions: scale 0 to 100
Outline: as §1

[6] = system: johnsongrass (Sorghum halepense); assay: Test E pre-/postemergence plant response; conditions: scale 0 to 100
Outline: as §1

[7] = system: broadleaf signalgrass (Brachiaria platyphylla); assay: Test E pre-/postemergence plant response; conditions: scale 0 to 100
Outline: as §1

[8] = system: naked crabgrass (Digitaria nuda); assay: Test E pre-/postemergence plant response; conditions: scale 0 to 100
Outline: as §1

[9] = system: large crabgrass (Digitaria sanguinalis); assay: Test E pre-/postemergence plant response; conditions: scale 0 to 100
Outline: as §1

[10] = system: annual bluegrass (Poa annua); assay: Test C pre-/postemergence plant response
Outline: (§2)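 Formulated in a surfactant-containing non-phytotoxic solvent, compounds were tested under controlled growth conditions as preemergence and postemergence treatments. Ratings from 0 (no effect) to 100 (complete control) were assigned visually relative to controls 15 to 25 days later.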

[11] = system: wild oat (Avena fatua); assay: Test C pre-/postemergence plant response
Outline: as §2

[12] = system: canola (Brassica rapa); assay: Test C pre-/postemergence plant response
Outline: as §2

[13] = system: canarygrass (Phalaris minor); assay: Test C pre-/postemergence plant response
Outline: as §2

[14] = system: windgrass (Apera spica-venti); assay: Test C pre-/postemergence plant response
Outline: as §2

[15] = Postemergence, 8 g ai/ha, scale 0 to 100, 0 no effect, 100 complete control
[16] = Postemergence, 16 g ai/ha, scale 0 to 100, 0 no effect, 100 complete control
[17] = Postemergence, 31 g ai/ha, scale 0 to 100, 0 no effect, 100 complete control
[18] = Postemergence, 62 g ai/ha, scale 0 to 100, 0 no effect, 100 complete control
[19] = Preemergence, 8 g ai/ha, scale 0 to 100 (0 no effect, 100 complete control)
[20] = Preemergence, 16 g ai/ha, scale 0 to 100 (0 no effect, 100 complete control)
[21] = Preemergence, 62 g ai/ha, scale 0 to 100, 0 no effect, 100 complete control
[22] = Preemergence, 31 g ai/ha, scale 0 to 100 (0 no effect, 100 complete control)

CCCc1cc(-c2ccc(Cl)cc2)nn1-c1c(O)cnn(C)c1=O [Compound 43]
80: Plant response rating, Sandbur, S. ([4]; Postemergence, 8 g ai/ha) | Plant response rating, Signalgrass ([7]; Postemergence, 8 g ai/ha) | Plant response rating, Signalgrass ([7]; Postemergence, 16 g ai/ha) | Plant response rating, Crabgrass, Large ([9]; 62 g ai/ha, Preemergence) | Plant response rating, Crabgrass, Large ([9]; Postemergence, 31 g ai/ha) | Plant response rating, Crabgrass, Large ([9]; Postemergence, 62 g ai/ha) | Plant response rating, Oat, Wild [11, 22] | Plant response rating, Windgrass [14, 22]
70: Plant response rating, Surinam Grass ([3]; 31 g ai/ha, Preemergence) | Plant response rating, Bermudagrass ([5]; 31 g ai/ha, Preemergence) | Plant response rating, Crabgrass, Large ([9]; 31 g ai/ha, Preemergence) | Plant response rating, Oat, Wild [11, 20]
35: Plant response rating, Itchgrass ([2]; 16 g ai/ha, Preemergence) | Plant response rating, Crabgrass, Naked ([8]; 16 g ai/ha, Preemergence) | Plant response rating, Crabgrass, Naked ([8]; 31 g ai/ha, Preemergence) | Plant response rating, Oat, Wild [11, 19]
60: Plant response rating, Sandbur, S. ([4]; 16 g ai/ha, Preemergence) | Plant response rating, Johnsongrass ([6]; 62 g ai/ha, Preemergence) | Plant response rating, Signalgrass ([7]; 16 g ai/ha, Preemergence) | Plant response rating, Crabgrass, Large ([9]; Postemergence, 16 g ai/ha) | Plant response rating, Windgrass [14, 16] | Plant response rating, Windgrass [14, 17] | Plant response rating, Windgrass [14, 18]
98: Plant response rating, Surinam Grass ([3]; Postemergence, 16 g ai/ha) | Plant response rating, Surinam Grass ([3]; Postemergence, 31 g ai/ha) | Plant response rating, Surinam Grass ([3]; Postemergence, 62 g ai/ha) | Plant response rating, Sandbur, S. ([4]; 62 g ai/ha, Preemergence) | Plant response rating, Sandbur, S. ([4]; Postemergence, 31 g ai/ha) | Plant response rating, Signalgrass ([7]; Postemergence, 62 g ai/ha) | Plant response rating, Oat, Wild [11, 21]
100: Plant response rating, Surinam Grass ([3]; 62 g ai/ha, Preemergence) | Plant response rating, Sandbur, S. ([4]; Postemergence, 62 g ai/ha) | Plant response rating, Signalgrass ([7]; 31 g ai/ha, Preemergence) | Plant response rating, Crabgrass, Naked ([8]; Postemergence, 62 g ai/ha) | Plant response rating, Oat, Wild [11, 15] | Plant response rating, Oat, Wild [11, 16] | Plant response rating, Oat, Wild [11, 17] | Plant response rating, Oat, Wild [11, 18] | Plant response rating, Windgrass [14, 21]
85: Plant response rating, Itchgrass ([2]; 62 g ai/ha, Preemergence) | Plant response rating, Bermudagrass ([5]; 62 g ai/ha, Preemergence) | Plant response rating, Canarygrass [13, 17]
25: Plant response rating, Johnsongrass ([6]; Postemergence, 16 g ai/ha) | Plant response rating, Bluegrass [10, 21] | Plant response rating, Windgrass [14, 20]
0: Plant response rating, Nutsedge, Purple ([1]; 16 g ai/ha, Preemergence) | Plant response rating, Nutsedge, Purple ([1]; 31 g ai/ha, Preemergence) | Plant response rating, Nutsedge, Purple ([1]; Postemergence, 8 g ai/ha) | Plant response rating, Nutsedge, Purple ([1]; Postemergence, 16 g ai/ha) | Plant response rating, Nutsedge, Purple ([1]; Postemergence, 31 g ai/ha) | Plant response rating, Nutsedge, Purple ([1]; Postemergence, 62 g ai/ha) | Plant response rating, Bermudagrass ([5]; Postemergence, 8 g ai/ha) | Plant response rating, Johnsongrass ([6]; 16 g ai/ha, Preemergence) | Plant response rating, Crabgrass, Large ([9]; 16 g ai/ha, Preemergence) | Plant response rating, Bluegrass [10, 15] | Plant response rating, Bluegrass [10, 16] | Plant response rating, Bluegrass [10, 17] | Plant response rating, Bluegrass [10, 19] | Plant response rating, Bluegrass [10, 20] | Plant response rating, Canola [12, 15] | Plant response rating, Canola [12, 16] | Plant response rating, Canola [12, 17] | Plant response rating, Canola [12, 18] | Plant response rating, Canola [12, 19] | Plant response rating, Canola [12, 22] | Plant response rating, Canola [12, 21]
20: Plant response rating, Itchgrass ([2]; Postemergence, 8 g ai/ha) | Plant response rating, Itchgrass ([2]; Postemergence, 31 g ai/ha) | Plant response rating, Bermudagrass ([5]; Postemergence, 16 g ai/ha) | Plant response rating, Bermudagrass ([5]; Postemergence, 31 g ai/ha) | Plant response rating, Bermudagrass ([5]; Postemergence, 62 g ai/ha)
75: Plant response rating, Nutsedge, Purple ([1]; 62 g ai/ha, Preemergence) | Plant response rating, Itchgrass ([2]; Postemergence, 62 g ai/ha) | Plant response rating, Sandbur, S. ([4]; 31 g ai/ha, Preemergence) | Plant response rating, Crabgrass, Naked ([8]; 62 g ai/ha, Preemergence) | Plant response rating, Canarygrass [13, 16] | Plant response rating, Canarygrass [13, 22]
50: Plant response rating, Itchgrass ([2]; 31 g ai/ha, Preemergence) | Plant response rating, Surinam Grass ([3]; 16 g ai/ha, Preemergence) | Plant response rating, Johnsongrass ([6]; 31 g ai/ha, Preemergence) | Plant response rating, Canarygrass [13, 19]
95: Plant response rating, Surinam Grass ([3]; Postemergence, 8 g ai/ha) | Plant response rating, Sandbur, S. ([4]; Postemergence, 16 g ai/ha) | Plant response rating, Signalgrass ([7]; Postemergence, 31 g ai/ha) | Plant response rating, Canarygrass [13, 18] | Plant response rating, Canarygrass [13, 21]
15: Plant response rating, Johnsongrass ([6]; Postemergence, 8 g ai/ha) | Plant response rating, Bluegrass [10, 18]
30: Plant response rating, Bermudagrass ([5]; 16 g ai/ha, Preemergence) | Plant response rating, Crabgrass, Large ([9]; Postemergence, 8 g ai/ha) | Plant response rating, Windgrass [14, 15]
65: Plant response rating, Johnsongrass ([6]; Postemergence, 31 g ai/ha) | Plant response rating, Crabgrass, Naked ([8]; Postemergence, 8 g ai/ha) | Plant response rating, Crabgrass, Naked ([8]; Postemergence, 16 g ai/ha) | Plant response rating, Canarygrass [13, 15] | Plant response rating, Canarygrass [13, 20]

From patent US20100267561A1, “HERBICIDAL PYRIDAZINONE DERIVATIVES” (priority 2007, published 2010)
